# Reference: publication PMC7395068, “The evolution of strategies to minimise the risk of human drug-induced liver injury (DILI) in drug discovery and development” (Archives of Toxicology, 2020)
# Read-outs that look alike come from different tables or passages of the source.
# Legend:
# PHH [1] = settings: cited from earlier work
# HepG2 cells [2] = settings: cited from earlier work
# hu-MPCC = settings: In vitro Assay; ref Khetani 2012; cited from earlier work
# [3] = system: isolated mouse liver mitochondria; settings: In vitro Assay; ref Porceddu 2012; cited from earlier work
# HepaRG spheroids = experiment: Combined HCI (HCS) and cellular ATP 3D assay in HepaRG spheroids; settings: for HepaRG <25x Avg Cmax ATP / HepaRG <100x Avg Cmaxu ATP: ATP endpoint; for HepaRG <25x Avg Cmax ATP / HepaRG <25x Avg Cmax HCS / HepaRG <25x Avg Cmax All: cut-off <25x Avg Cmax; for HepaRG <100x Avg Cmaxu ATP / HepaRG <100x Avg Cmaxu HCS / HepaRG <100x Avg Cmaxu All: cut-off <100x Avg Cmaxu; for HepaRG <25x Avg Cmax HCS / HepaRG <100x Avg Cmaxu HCS: HCS endpoints; for HepaRG <25x Avg Cmax All: all endpoints (ATP and HCS); for HepaRG Cmax max All / HepaRG Cmax min All / HepaRG <10 uM All / HepaRG <100x Avg Cmaxu All: all endpoints; for HepaRG Cmax max All: Cmax max used; for HepaRG Cmax min All: Cmax min used; for HepaRG <10 uM All: cut-off <10 uM; for AC50 / minimal effective concentration: Homo sapiens; for HepaRG <25x Avg Cmax ATP / HepaRG <100x Avg Cmaxu ATP / HepaRG <25x Avg Cmax HCS / HepaRG <100x Avg Cmaxu HCS / HepaRG <25x Avg Cmax All / HepaRG Cmax max All / HepaRG Cmax min All / HepaRG <10 uM All / HepaRG <100x Avg Cmaxu All / AC50 / minimal effective concentration: HepaRG; for DILI prediction HepaRG spheroids (HCS-MEC): Microtissue model structural based (HCI), combined HCS and ATP, MEC < 25 × Cmax.tot cut-off
# Method: (§1) 3D spheroid models consisting of either primary human hepatocytes with non-parenchymal cells (hLiMT’s) or HepaRG cells (HepaRG spheroids) were assessed for size (MS), oxidative stress (OS), MMP, mitochondrial mass (MM), GSH and cellular ATP content following drug exposure. Fluorescent images are acquired using the confocal mode of an ArrayScan™ XTI HCI reader (ThermoScientific) following which cellular ATP was measured using 3D CellTiter-Glo (Promega).
# PHH spheroids = settings: cited from earlier work
# [4] = system: primary human hepatocytes, NIH3T3 fibroblasts, BSEP, CYP3A4; settings: cited from earlier work; for DILI in vitro assay prediction, Schadt (2015): BSEP & Metabolism based, ref Schadt et al. 2015
# RMPCC's = settings: In vitro Assay; ref Khetani 2012; cited from earlier work
# HepG2 cells [5] = settings: cited from earlier work; remark: listed apart in the source
# hLiMTs [6] = settings: cited from earlier work
# HepG2 = system: HepG2; set-up: method as in Albrecht 2019; settings: In vitro Assay; ref Albrecht 2019; cited from earlier work
# [7] = in vivo; cited from earlier work
# [8] = read-out: Human plasma Cmax; total plasma Cmax.tot, median of 9 literature references; cited from earlier work
# [9] = cited from earlier work
# PHH 3D spheroids = system: PHH 3D spheroids; set-up: method as in Bell et al. 2018; settings: 14-day exposure, three donors, ref Bell et al. 2018; cited from earlier work
# PHH [10] = settings: In vitro Assay; ref Albrecht 2019; cited from earlier work
# HepG2 cells [11] = settings: cited from earlier work; remark: listed apart in the source
# [12] = system: THLE or HepG2 cells, isolated mitochondria, BSEP; settings: cited from earlier work
# [13] = system: THLE-Null and THLE-3A4 cells; settings: In vitro Assay; ref Gustafsson 2014; cited from earlier work
# [14] = plasma free fraction; cited from earlier work
# hLiMTs [15] = experiment: Combined HCI (HCS) and cellular ATP 3D assay in hLiMTs; settings: for AC50 / minimal effective concentration: Homo sapiens; for DILI prediction hLiMTs (HCS-MEC): Microtissue model structural based (HCI), combined HCS and ATP, MEC < 25 × Cmax.tot cut-off; for hLiMTs <25x Avg Cmax ATP / hLiMTs <100x Avg Cmaxu ATP: ATP endpoint; for hLiMTs <25x Avg Cmax ATP / hLiMTs <25x Avg Cmax HCS / hLiMTs <25x Avg Cmax All: cut-off <25x Avg Cmax; for hLiMTs <100x Avg Cmaxu ATP / hLiMTs <100x Avg Cmaxu HCS / hLiMTs <100x Avg Cmaxu All: cut-off <100x Avg Cmaxu; for hLiMTs <25x Avg Cmax HCS / hLiMTs <100x Avg Cmaxu HCS: HCS endpoints; for hLiMTs <25x Avg Cmax All: all endpoints (ATP and HCS); for hLiMTs Cmax max All / hLiMTs Cmax min All / hLiMTs <10 uM All / hLiMTs <100x Avg Cmaxu All: all endpoints; for hLiMTs Cmax max All: Cmax max used; for hLiMTs Cmax min All: Cmax min used; for hLiMTs <10 uM All: cut-off <10 uM
# Method: as §1
# [16] = Plasma free fraction (fu) and unbound Cmax (Cmax,u); assay type: in vitro ADME, human; settings: unbound plasma Cmax
# Method: The prediction of DILI severity was evaluated further using the 3D combined HCI assays using plasma-free fraction. The majority of fu values were obtained from literature, when unavailable in-house prediction was utilised. Unbound plasma Cmax concentrations (Cmax,u) were derived by multiplying total plasma Cmax with the corresponding free fraction (fu) for each compound.
# human hepatocytes = settings: cited from earlier work
# [17] = cited from earlier work; remark: listed apart in the source
# OATP1B1 = settings: known substrates; cited from earlier work
# [18] = system: HepG2 C3A spheroid, BSEP, Glu/Gal in HepG2 cells, bioactivation; settings: Bayesian modeling; ref Williams et al. 2019; cited from earlier work
# [19] = In vitro Assay, ref Proctor 2017
# [20] = In vitro Assay, ref Schadt 2015
# [21] = HCS endpoints only, 25 × Cmax.tot cut-off
# [22] = Modeled in vitro assays (cytotoxicity, mitochondrial dysfunction, BSEP), ref Aleo et al. 2019
smiles,measurement,setting,value
O=C(O)Cc1ccccc1Nc1c(Cl)cccc1Cl [diclofenac],"PHH/100uM, Proctor (2017)","PHH [1]; 2D PHH, ATP, IC50 threshold 100 µM, ref Proctor et al. 2017",-VE
same,PHH ATP <100uM,PHH [1]; [19],-VE
same,Structural based (HCI),"HepG2 cells [2]; In vitro Assay, ref Persson 2013",-VE
same,Cluser analysis,HepG2 cells [2],-VE
same,"DILI in vitro assay prediction, Persson (2013)",HepG2 cells [2],-VE
same,HMPCC's,hu-MPCC,+VE
same,in vitro data EC2<=1x Cmax,[3],+VE
same,HepaRG <25x Avg Cmax ATP,HepaRG spheroids,+ve
same,HepaRG <100x Avg Cmaxu ATP,HepaRG spheroids,-ve
same,HepaRG <25x Avg Cmax HCS,HepaRG spheroids,+ve
same,HepaRG <100x Avg Cmaxu HCS,HepaRG spheroids,-ve
same,HepaRG <25x Avg Cmax All,HepaRG spheroids,+ve
same,HepaRG Cmax max All,HepaRG spheroids,+ve
same,HepaRG Cmax min All,HepaRG spheroids,+ve
same,HepaRG <10 uM All,HepaRG spheroids,-ve
same,HepaRG <100x Avg Cmaxu All,HepaRG spheroids,-ve
same,AC50,HepaRG spheroids; read-out: ATP endpoint AC50,78 µM
same,minimal effective concentration,HepaRG spheroids; read-out: ATP endpoint MEC,38.2 µM
same,AC50,HepaRG spheroids; read-out: HCS endpoint AC50,98.6 µM
same,minimal effective concentration,HepaRG spheroids; read-out: HCS endpoint MEC,42.9 µM
same,DILI prediction HepaRG spheroids (HCS-MEC),HepaRG spheroids,+VE (MEC < 25 × Cmax.tot cut-off)
same,hLiMTs ATP <20 x Cmax,"PHH spheroids; In vitro Assay, ref Vorrink 2018",+VE (IC20 < 20 × Cmax.tot cut-off)
same,"DILI in vitro assay prediction, Vorrink (2018)",PHH spheroids,+VE (key: +VE: IC20 < 20 × Cmax.tot cut-off)
same,"DILI in vitro assay prediction, Schadt (2015)",[4],+VE
same,Cellular toxicity (3T3 cells),[4]; [20],-VE
same,Combined Assay,[4]; [20],+VE
same,GSH adduct HML,[4]; [20],+VE
same,Hepatocyte cellular toxicity,[4]; [20],-VE
same,MitoTox 3T3,[4]; [20],-VE
same,TDI CYP3A4,[4]; [20],-VE
same,hBSEP inhibition,[4]; [20],-VE
same,RMPCC's,RMPCC's,+VE
same,Structural based (HCI),"HepG2 cells [5]; In vitro Assay, ref Tolosa 2012",+VE
same,"DILI in vitro assay prediction, Tolosa (2012)",HepG2 cells [5],+VE
same,hLiMTs ATP <100uM,hLiMTs [6]; [19],+VE (IC50 threshold of 100 µM)
same,"hLiMTs/100uM, Proctor (2017)","hLiMTs [6]; hLiMTs, ATP, IC50 threshold 100 µM, ref Proctor et al. 2017",+VE (IC50 threshold of 100 µM)
same,Cytotoxicity HepG2 48 hrs,HepG2,+VE
same,DILI Score (FDA) (1-8),[7],7
same,Cmax,[8],10.1 µM
same,"DILI +VE (5-8), DILI -VE (-4)",[9]; in vivo,+VE
same,DILI severity category (Chen et al. [2016]),[9]; in vivo,Most
same,detection at 10 × Cmax.tot cut-off,PHH 3D spheroids,only detected by one of three donors
same,Cytotoxicity PHH 48 hrs,PHH [10],+VE
same,Structural based (HCI),"HepG2 cells [11]; In vitro Assay, ref O'Brien 2006",+VE
same,"DILI in vitro assay prediction, O'Brien (2006)",HepG2 cells [11],+VE (key: +VE: lowest HCI endpoint IC50 (or in the absence of dose–response < 100 µM) < 30 × total human plasma exposure levels (Cmax.tot))
same,Ro2 Hybrid HRM Score,[12],+VE
same,THLE-Null,[13],+VE
same,fu,[14],0.010
same,AC50,hLiMTs [15]; read-out: ATP endpoint AC50,62.1 µM
same,minimal effective concentration,hLiMTs [15]; read-out: ATP endpoint MEC,17.2 µM
same,AC50,hLiMTs [15]; read-out: HCS endpoint AC50,293 µM
same,minimal effective concentration,hLiMTs [15]; read-out: HCS endpoint MEC,45 µM
same,DILI prediction hLiMTs (HCS-MEC),hLiMTs [15],+VE (MEC < 25 × Cmax.tot cut-off)
same,hLiMTs <25x Avg Cmax ATP,hLiMTs [15],+ve
same,hLiMTs <100x Avg Cmaxu ATP,hLiMTs [15],-ve
same,hLiMTs <25x Avg Cmax HCS,hLiMTs [15],+ve
same,hLiMTs <100x Avg Cmaxu HCS,hLiMTs [15],-ve
same,hLiMTs <25x Avg Cmax All,hLiMTs [15],+ve
same,hLiMTs Cmax max All,hLiMTs [15],+ve
same,hLiMTs Cmax min All,hLiMTs [15],+ve
same,hLiMTs <10 uM All,hLiMTs [15],-ve
same,hLiMTs <100x Avg Cmaxu All,hLiMTs [15],-ve
same,"Human plasma Cmax,u",[16],0.101 µM
same,"DILI in vitro assay prediction, Xu (2008)",human hepatocytes,+VE
same,Assigned DILI category,[17]; in vivo,3
same,In vivo DILI,[17]; in vivo,+VE
Cc1cc2c(cc1CC(=O)c1sccc1S(=O)(=O)Nc1onc(C)c1Cl)OCO2 [sitaxsentan],substrate for hepatic uptake transporter OATP1B1,OATP1B1,known substrates
same,"DILI prediction HepaRG spheroids, HCI alone",HepaRG spheroids; [21],positive
same,HepaRG <25x Avg Cmax ATP,HepaRG spheroids,-ve
same,HepaRG <100x Avg Cmaxu ATP,HepaRG spheroids,-ve
same,HepaRG <25x Avg Cmax HCS,HepaRG spheroids,+ve
same,HepaRG <100x Avg Cmaxu HCS,HepaRG spheroids,+ve (<100x Avg Cmaxu)
same,HepaRG <25x Avg Cmax All,HepaRG spheroids,+ve
same,HepaRG Cmax max All,HepaRG spheroids,+ve
same,HepaRG Cmax min All,HepaRG spheroids,+ve
same,HepaRG <10 uM All,HepaRG spheroids,+ve (<10 uM)
same,HepaRG <100x Avg Cmaxu All,HepaRG spheroids,+ve (<100x Avg Cmaxu)
same,AC50,HepaRG spheroids; read-out: HCS endpoint AC50,9.74 µM
same,minimal effective concentration,HepaRG spheroids; read-out: HCS endpoint MEC,8.53 µM
same,DILI prediction HepaRG spheroids (HCS-MEC),HepaRG spheroids,+VE (MEC < 25 × Cmax.tot cut-off)
same,"DILI in vitro assay prediction, Schadt (2015)",[4],+VE
same,"Bayesian Machine Learning DILI prediction, Williams (2019)",[18],+VE
same,"hLiMTs/100xCmax, Proctor (2017)","hLiMTs [6]; hLiMTs, ATP, IC50 < 100 × Cmax.tot, ref Proctor et al. 2017",+VE (IC50 < 100 × Cmax.tot)
same,Cmax,[8],25.3 µM
same,DILI severity category (Chen et al. [2016]),"[9]; LTKB DILIrank category, ref Chen et al. 2016",Most
same,DILI severity category (Chen 2016),"[9]; human DILI classification, LTKB DILIrank, ref Chen et al. 2016",Most
same,DILI severity category,"[9]; human DILI severity, ref Chen et al.",Most
same,"Partition Hybrid HRM Score ≥4, Aleo (2019)",[12]; [22],+VE (Partition Hybrid HRM Score ≥4)
same,"Partition Hybrid HRM Score ≥8, Aleo (2019)",[12]; [22],+VE (Partition Hybrid HRM Score ≥8)
same,"Rule of Two hybrid HRM Score ≥3, Aleo (2019)",[12]; [22],+VE (Rule of Two hybrid HRM Score ≥3)
same,"Rule of Two hybrid HRM Score ≥8, Aleo (2019)",[12]; [22],+VE (Rule of Two hybrid HRM Score ≥8)
same,fu,[14],0.005
same,"DILI prediction hLiMTs, HCI alone",hLiMTs [15]; [21],detection
same,minimal effective concentration,hLiMTs [15]; read-out: HCS endpoint MEC,130 µM
same,DILI prediction hLiMTs (HCS-MEC),hLiMTs [15],+VE (MEC < 25 × Cmax.tot cut-off)
same,"DILI prediction hLiMTs, ATP alone","hLiMTs [15]; cellular ATP only, 25 × Cmax.tot cut-off",unpredicted
same,hLiMTs <25x Avg Cmax ATP,hLiMTs [15],-ve
same,hLiMTs <100x Avg Cmaxu ATP,hLiMTs [15],-ve
same,hLiMTs <25x Avg Cmax HCS,hLiMTs [15],+ve
same,hLiMTs <100x Avg Cmaxu HCS,hLiMTs [15],-ve
same,hLiMTs <25x Avg Cmax All,hLiMTs [15],+ve
same,hLiMTs Cmax max All,hLiMTs [15],+ve
same,hLiMTs Cmax min All,hLiMTs [15],+ve
same,hLiMTs <10 uM All,hLiMTs [15],-ve
same,hLiMTs <100x Avg Cmaxu All,hLiMTs [15],-ve
same,"Human plasma Cmax,u",[16],0.126 µM
same,Assigned DILI category,"[17]; Chen et al. 2016 or literature alignment, ref Chen et al. 2016",3
